Measured values as given in the supplement of paper PMC10132981, “Formate overflow drives toxic folate trapping in MTHFD1 inhibited cancer cells” (Nature Metabolism, 2023).
± gives the standard deviation of the averaged measurements.

Key:
[1] = tested on: SW620 MTHFD2-/-; test: cell viability relative to vehicle (resazurin, 96 h); higher = more viable; conditions: base medium: RPMI + dialysed FBS
Description: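 SW620 WT or MTHFD2-/- cells were treated for 96 h with a compound dilution series (log10 M) in RPMI with normal or dialysed FBS. Viability was read by resazurin and is given as % of vehicle.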

[2] = tested on: SW620; test: cell viability relative to lowest-dose well (resazurin, 96 h); higher = more viable; conditions: RPMI + 10% FBS
Procedure, shortened: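 Compounds from 10 mM DMSO stocks were dispensed as dilution series onto HCT116 (500 cells/well) or SW620 (1,000 cells/well) cells growing in 384-well plates in 50 µl RPMI, 10% FBS and a metabolite supplement. Plates were incubated 96 h at 37 °C, 5% CO2, then resazurin (10 µg ml^−1) was added and its conversion to resorufin read by fluorescence at 595 nm after 5 h. Viability is shown as percent of the lowest-dose well for independent replicate cultures. Viability was read by resazurin-to-resorufin conversion and normalised to the lowest-dose vehicle well (=100%).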

CN(Cc1cnc2nc(N)nc(N)c2n1)c1ccc(C(=O)N[C@@H](CCC(=O)O)C(=O)O)cc1 [methotrexate]
[1]
Conditions	cell viability [%]
log10 compound concentration (M): -6, supplement / serum: 50 μM Hypoxanthine	6.45 ± 1.8
log10 compound concentration (M): -6, supplement / serum: 50 μM Thymidine	6.68 ± 2
log10 compound concentration (M): -6, supplement / serum: 50 μM Thymidine + 50 μM Hypoxanthine	111 ± 30
log10 compound concentration (M): -6, supplement / serum: Hypoxanthine	6.76 ± 0.79
log10 compound concentration (M): -6, supplement / serum: Hypoxanthine+Sodium Formate	6.18 ± 0.99
log10 compound concentration (M): -6, supplement / serum: Hypoxanthine+Sodium Formate+Thymidine	93.3 ± 22
log10 compound concentration (M): -6, supplement / serum: No metabolite	7.7 ± 3.4
log10 compound concentration (M): -6, supplement / serum: Sodium Formate	7.05 ± 0.31
log10 compound concentration (M): -6, supplement / serum: Vehicle	7.38 ± 2
log10 compound concentration (M): -6.47712, supplement / serum: 50 μM Hypoxanthine	6.99 ± 0.59
log10 compound concentration (M): -6.47712, supplement / serum: 50 μM Thymidine	7.63 ± 1.5
log10 compound concentration (M): -6.47712, supplement / serum: 50 μM Thymidine + 50 μM Hypoxanthine	115 ± 30
log10 compound concentration (M): -6.47712, supplement / serum: Hypoxanthine	7.12 ± 0.93
log10 compound concentration (M): -6.47712, supplement / serum: Hypoxanthine+Sodium Formate	6.79 ± 1.1
log10 compound concentration (M): -6.47712, supplement / serum: Hypoxanthine+Sodium Formate+Thymidine	112 ± 12
log10 compound concentration (M): -6.47712, supplement / serum: No metabolite	7.99 ± 1.3
log10 compound concentration (M): -6.47712, supplement / serum: Sodium Formate	7.19 ± 0.6
log10 compound concentration (M): -6.47712, supplement / serum: Vehicle	7.78 ± 0.39
log10 compound concentration (M): -6.95424, supplement / serum: 50 μM Hypoxanthine	7.25 ± 0.99
log10 compound concentration (M): -6.95424, supplement / serum: 50 μM Thymidine	7.71 ± 0.92
log10 compound concentration (M): -6.95424, supplement / serum: 50 μM Thymidine + 50 μM Hypoxanthine	111 ± 12
log10 compound concentration (M): -6.95424, supplement / serum: Hypoxanthine	7.47 ± 1.2
log10 compound concentration (M): -6.95424, supplement / serum: Hypoxanthine+Sodium Formate	7.62 ± 1.2
log10 compound concentration (M): -6.95424, supplement / serum: Hypoxanthine+Sodium Formate+Thymidine	107 ± 6.9
log10 compound concentration (M): -6.95424, supplement / serum: No metabolite	8.02 ± 0.63
log10 compound concentration (M): -6.95424, supplement / serum: Sodium Formate	7.59 ± 0.76
log10 compound concentration (M): -6.95424, supplement / serum: Vehicle	7.71 ± 1.6
log10 compound concentration (M): -7.43136, supplement / serum: 50 μM Hypoxanthine	14.5 ± 2.3
log10 compound concentration (M): -7.43136, supplement / serum: 50 μM Thymidine	7.18 ± 1
log10 compound concentration (M): -7.43136, supplement / serum: 50 μM Thymidine + 50 μM Hypoxanthine	95.6 ± 1.9
log10 compound concentration (M): -7.43136, supplement / serum: Hypoxanthine	11.5 ± 3.9
log10 compound concentration (M): -7.43136, supplement / serum: Hypoxanthine+Sodium Formate	11.1 ± 2.4
log10 compound concentration (M): -7.43136, supplement / serum: Hypoxanthine+Sodium Formate+Thymidine	98.6 ± 4.9
log10 compound concentration (M): -7.43136, supplement / serum: No metabolite	7.722 ± 0.021
log10 compound concentration (M): -7.43136, supplement / serum: Sodium Formate	7.53 ± 1.1
log10 compound concentration (M): -7.43136, supplement / serum: Vehicle	7.22 ± 0.77
log10 compound concentration (M): -7.90849, supplement / serum: 50 μM Hypoxanthine	70.7 ± 11
log10 compound concentration (M): -7.90849, supplement / serum: 50 μM Thymidine	12.3 ± 0.92
log10 compound concentration (M): -7.90849, supplement / serum: 50 μM Thymidine + 50 μM Hypoxanthine	106 ± 17
log10 compound concentration (M): -7.90849, supplement / serum: Hypoxanthine	54.5 ± 34
log10 compound concentration (M): -7.90849, supplement / serum: Hypoxanthine+Sodium Formate	55.4 ± 34
log10 compound concentration (M): -7.90849, supplement / serum: Hypoxanthine+Sodium Formate+Thymidine	102 ± 7.2
log10 compound concentration (M): -7.90849, supplement / serum: No metabolite	10.5 ± 0.51
log10 compound concentration (M): -7.90849, supplement / serum: Sodium Formate	11.5 ± 2.8
log10 compound concentration (M): -7.90849, supplement / serum: Vehicle	8.29 ± 3.2
log10 compound concentration (M): -8.38561, supplement / serum: 50 μM Hypoxanthine	76.3 ± 13
log10 compound concentration (M): -8.38561, supplement / serum: 50 μM Thymidine	14.7 ± 1.2
log10 compound concentration (M): -8.38561, supplement / serum: 50 μM Thymidine + 50 μM Hypoxanthine	102 ± 3.9
log10 compound concentration (M): -8.38561, supplement / serum: Hypoxanthine	74.7 ± 3.3
log10 compound concentration (M): -8.38561, supplement / serum: Hypoxanthine+Sodium Formate	79.4 ± 7.5
log10 compound concentration (M): -8.38561, supplement / serum: Hypoxanthine+Sodium Formate+Thymidine	84.7 ± 16
log10 compound concentration (M): -8.38561, supplement / serum: No metabolite	9.121 ± 0.06
log10 compound concentration (M): -8.38561, supplement / serum: Sodium Formate	33.1 ± 28
log10 compound concentration (M): -8.38561, supplement / serum: Vehicle	15.5 ± 11
log10 compound concentration (M): -8.86273, supplement / serum: 50 μM Hypoxanthine	92.6 ± 1.9
log10 compound concentration (M): -8.86273, supplement / serum: 50 μM Thymidine	66.7 ± 2.4
log10 compound concentration (M): -8.86273, supplement / serum: 50 μM Thymidine + 50 μM Hypoxanthine	109 ± 8.3
log10 compound concentration (M): -8.86273, supplement / serum: Hypoxanthine	92.5 ± 8.8
log10 compound concentration (M): -8.86273, supplement / serum: Hypoxanthine+Sodium Formate	97.5 ± 5.6
log10 compound concentration (M): -8.86273, supplement / serum: Hypoxanthine+Sodium Formate+Thymidine	91.4 ± 13
log10 compound concentration (M): -8.86273, supplement / serum: No metabolite	47.4 ± 7.7
log10 compound concentration (M): -8.86273, supplement / serum: Sodium Formate	72.7 ± 24
log10 compound concentration (M): -8.86273, supplement / serum: Vehicle	45.5 ± 30
log10 compound concentration (M): -9.33985, supplement / serum: 50 μM Hypoxanthine	100 ± 1.1
log10 compound concentration (M): -9.33985, supplement / serum: 50 μM Thymidine	87.7 ± 3.7
log10 compound concentration (M): -9.33985, supplement / serum: 50 μM Thymidine + 50 μM Hypoxanthine	102 ± 2.3
log10 compound concentration (M): -9.33985, supplement / serum: Hypoxanthine	92.7 ± 8.2
log10 compound concentration (M): -9.33985, supplement / serum: Hypoxanthine+Sodium Formate	96.4 ± 5.5
log10 compound concentration (M): -9.33985, supplement / serum: Hypoxanthine+Sodium Formate+Thymidine	98.6 ± 6.5
log10 compound concentration (M): -9.33985, supplement / serum: No metabolite	82.1 ± 17
log10 compound concentration (M): -9.33985, supplement / serum: Sodium Formate	101 ± 4.5
log10 compound concentration (M): -9.33985, supplement / serum: Vehicle	80.1 ± 14
log10 compound concentration (M): -9.81697, supplement / serum: 50 μM Hypoxanthine	95.3 ± 10
log10 compound concentration (M): -9.81697, supplement / serum: 50 μM Thymidine	109.8 ± 0.13
log10 compound concentration (M): -9.81697, supplement / serum: 50 μM Thymidine + 50 μM Hypoxanthine	104 ± 17
log10 compound concentration (M): -9.81697, supplement / serum: Hypoxanthine	102 ± 5.1
log10 compound concentration (M): -9.81697, supplement / serum: Hypoxanthine+Sodium Formate	100 ± 6.5
log10 compound concentration (M): -9.81697, supplement / serum: Hypoxanthine+Sodium Formate+Thymidine	98.5 ± 3.7
log10 compound concentration (M): -9.81697, supplement / serum: No metabolite	97.9 ± 18
log10 compound concentration (M): -9.81697, supplement / serum: Sodium Formate	97.9 ± 3.1
log10 compound concentration (M): -9.81697, supplement / serum: Vehicle	94.8 ± 1.6
log10 compound concentration (M): -10.2941, supplement / serum: 50 μM Hypoxanthine	105 ± 4
log10 compound concentration (M): -10.2941, supplement / serum: 50 μM Thymidine	93.5 ± 5.9
log10 compound concentration (M): -10.2941, supplement / serum: 50 μM Thymidine + 50 μM Hypoxanthine	103 ± 3.5
log10 compound concentration (M): -10.2941, supplement / serum: Hypoxanthine	91 ± 5.6
log10 compound concentration (M): -10.2941, supplement / serum: Hypoxanthine+Sodium Formate	96.2 ± 5.3
log10 compound concentration (M): -10.2941, supplement / serum: Hypoxanthine+Sodium Formate+Thymidine	100 ± 2.4
log10 compound concentration (M): -10.2941, supplement / serum: No metabolite	94.6 ± 11
log10 compound concentration (M): -10.2941, supplement / serum: Sodium Formate	95.9 ± 6.7
log10 compound concentration (M): -10.2941, supplement / serum: Vehicle	87.6 ± 2.2
log10 compound concentration (M): -10.7712, supplement / serum: 50 μM Hypoxanthine	88.2 ± 16
log10 compound concentration (M): -10.7712, supplement / serum: 50 μM Thymidine	96.2 ± 14
log10 compound concentration (M): -10.7712, supplement / serum: 50 μM Thymidine + 50 μM Hypoxanthine	110 ± 1.4
log10 compound concentration (M): -10.7712, supplement / serum: Hypoxanthine	98.1 ± 4.3
log10 compound concentration (M): -10.7712, supplement / serum: Hypoxanthine+Sodium Formate	92.28 ± 0.67
log10 compound concentration (M): -10.7712, supplement / serum: Hypoxanthine+Sodium Formate+Thymidine	103 ± 3
log10 compound concentration (M): -10.7712, supplement / serum: No metabolite	111 ± 2.2
log10 compound concentration (M): -10.7712, supplement / serum: Sodium Formate	95 ± 5.9
log10 compound concentration (M): -10.7712, supplement / serum: Vehicle	95.6 ± 4.9

cell viability [%], [2]
Conditions	0.001 µM	0.00278 µM	0.00774 µM	0.0215 µM	0.0599 µM	0.167 µM	0.464 µM	1.29 µM	3.59 µM	10 µM
metabolite supplement: 50uM thymidine	96.3 ± 4	95 ± 7.7	76.7 ± 16	42.2 ± 12	34.3 ± 11	34.8 ± 9.7	33.1 ± 11	32.6 ± 10	30.9 ± 11	30.5 ± 11
metabolite supplement: 50uM thymidine + 250uM hypoxanthine	95.7 ± 5.2	94.5 ± 5.3	93.4 ± 7.8	97.4 ± 6.6	90.2 ± 11	96.4 ± 8.1	94.7 ± 8.8	87.5 ± 18	83.6 ± 16	83.6 ± 16
metabolite supplement: 250uM hypoxanthine	98.8 ± 6.7	99.5 ± 3.2	96.2 ± 4.7	75.1 ± 2.8	32.8 ± 7.5	28 ± 2.8	28.3 ± 3.3	28.4 ± 2.6	29.6 ± 0.61	29.5 ± 1.9
metabolite supplement: vehicle	98 ± 2.8	96.3 ± 3.9	79.3 ± 6.6	60.4 ± 4.5	33.7 ± 6.8	26.9 ± 1.6	27 ± 1.2	26.4 ± 1.5	28.3 ± 1.5	29.3 ± 1.6
